Among the test systems are M19-MEL; DMS-273; RXF 631; SNB-78; HOP-18; KM-20L2; DLD-1; LXFL 529; XF498.
Holding throughout (assay): NCI tumour cell line growth inhibition, 48 h

Structures are written as SMILES.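 Tested at 5 concentrations; 48 h exposure; 96-well plates; endpoints linearly interpolated, else capped at highest concentration. GI50 is the concentration that inhibits growth by half.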 Activity calls are given as the source filed them. Rule as the data show it: active = GI50 up to about 1.1 µM and inactive = higher. A value given as a limit tells only on which side of the number the result lay.

As for `O=C1C=C(Nc2ccc(S(=O)(=O)Nc3ncccn3)cc2)c2ccccc2C1=O`, the GI50 with M19-MEL was 15.5 µM (inactive); in the assay with DMS-273, 27.7 µM (inactive); in the assay on RXF 631, 22.3 µM (inactive); in the assay with SNB-78, 28.8 µM (inactive); in the assay with HOP-18, 26.3 µM (inactive); in the assay with KM-20L2, 28.7 µM (inactive). The GI50 was 20.7 µM (inactive) in the assay on DLD-1 and 23.2 µM (inactive) in the assay with LXFL 529.
For the compound `O=C1/C(=C/c2cccc([N+](=O)[O-])c2)COc2ccc(Br)cc21`, the GI50 in the assay on M19-MEL was > 100 µM (inactive); with DMS-273 it was 45.2 µM (inactive); with SNB-78 it was > 100 µM (inactive); in the assay on HOP-18 it was > 100 µM (inactive); with KM-20L2 it was > 100 µM (inactive); in the assay with DLD-1, > 100 µM (inactive). Further, the GI50 with LXFL 529 and with XF498 was > 100 µM (inactive) throughout.
With `CC1(c2ccc[n+](Cc3ccccc3)c2)OCCO1`, the GI50 with M19-MEL, in the assay on DMS-273, in the assay on SNB-78, in the assay on HOP-18, in the assay on KM-20L2 and in the assay on DLD-1 was > 100 µM (inactive) each time. The GI50 in the assay on LXFL 529 is > 100 µM (inactive).
For `O=C1NC(=S)NC(=O)C1=CC1CC1`, the GI50 in the assay with M19-MEL, with DMS-273, in the assay with SNB-78, in the assay on HOP-18, in the assay with KM-20L2 and in the assay on DLD-1 was > 100 µM (inactive) throughout. The GI50 in the assay with LXFL 529 and with XF498 was > 100 µM (inactive) each time.
`O=C1[C@H]2ON(c3ccccc3)C(c3ccc([N+](=O)[O-])cc3)[C@H]2C(=O)N1c1ccc(Cc2ccc(N3C(=O)[C@@H]4ON(c5ccccc5)C(c5ccc([N+](=O)[O-])cc5)[C@@H]4C3=O)cc2)cc1` (stereo partly specified): the GI50 in the assay with M19-MEL, in the assay on DMS-273, in the assay on RXF 631, with SNB-78, in the assay with HOP-18 and with KM-20L2 was > 100 µM (inactive) in each case. Further, the GI50 in the assay on DLD-1 is > 100 µM (inactive); in the assay on LXFL 529 it was 74.6 µM (inactive).
Take `COc1ccc(/C=C2\C(=O)NC(=O)c3ccccc32)cc1OC`: the GI50 was 41 µM (inactive) with M19-MEL; 21.4 µM (inactive) in the assay on DMS-273; 6.58 µM (inactive) with SNB-78; > 100 µM (inactive) in the assay on HOP-18; 5.07 µM (inactive) with KM-20L2; 4.81 µM (inactive) with DLD-1. Moreover, the GI50 in the assay on XF498 is 6.71 µM (inactive).
Regarding `C[C@]12CCC(=O)C=C1CC[C@@H]1[C@@H]2[C@@H](O)C[C@@]2(C)[C@H]1CC[C@]2(O)C(=O)COC(=O)CCC1CCCC1` [HYDROCORTISONE CYPIONATE], the GI50 was > 100 µM (inactive) in the assay on M19-MEL; 61.1 µM (inactive) in the assay with DMS-273; > 100 µM (inactive) in the assay on SNB-78; > 100 µM (inactive) in the assay with KM-20L2; > 100 µM (inactive) with DLD-1; > 100 µM (inactive) with LXFL 529. In addition, the GI50 with XF498 was > 100 µM (inactive).
Consider `CC(=O)Oc1cc2c(cc1OC(C)=O)OCC(c1ccc(C)cc1)C2` (stereo unspecified), for which the GI50 in the assay with M19-MEL was 9.29 µM (inactive); with DMS-273, 19.4 µM (inactive); in the assay with SNB-78 it was 21.6 µM (inactive); in the assay on HOP-18 it was 26.9 µM (inactive); in the assay on KM-20L2, 25.1 µM (inactive); with DLD-1, 21.8 µM (inactive). For the same compound, the GI50 in the assay on XF498 is 15.4 µM (inactive).
With `O=C(C(O)c1cn(Cc2ccccc2)c2ccccc12)N1CCCCC1` (stereo unspecified), the GI50 is > 100 µM (inactive) with M19-MEL; > 100 µM (inactive) in the assay with DMS-273; > 10 µM (inactive) in the assay on SNB-78; 24.1 µM (inactive) in the assay with HOP-18; 38.8 µM (inactive) with KM-20L2; > 100 µM (inactive) in the assay on DLD-1. In addition, the values for the GI50 with LXFL 529 and in the assay with XF498 were 79.6 µM (inactive) and 93.1 µM (inactive), respectively.
Take `CCOC(=O)c1ccn2c(c1)c(C#N)c1nc3ccccc3nc12`: the GI50 in the assay on M19-MEL was 61.8 µM (inactive); in the assay on DMS-273, 37.2 µM (inactive); in the assay on SNB-78, 15.5 µM (inactive); with KM-20L2, 71.9 µM (inactive); in the assay on DLD-1, 27.4 µM (inactive); in the assay with LXFL 529, 31.6 µM (inactive). Further, the GI50 with XF498 was 33.7 µM (inactive).
`c1cc2c3c(c1)c1cc4c(cc1c[n+]3CC2)OCO4` [ANHYDROLYCORINIUM CHLORIDE]: the GI50 in the assay with M19-MEL is 1.33 µM (inactive); in the assay on DMS-273, 4.42 µM (inactive); with SNB-78, 4.06 µM (inactive); in the assay on HOP-18, 9.79 µM (inactive); with KM-20L2 it was 3.56 µM (inactive); in the assay on DLD-1, 8.83 µM (inactive). Moreover, the GI50 in the assay with XF498 is 4.14 µM (inactive).
Take `COc1ccccc1NC(=O)C1=C(C)NC(C)=C(C(=O)Nc2ccccc2OC)C1c1ccc(N(C)C)cc1`: the GI50 with M19-MEL was 31.5 µM (inactive); in the assay on SNB-78, 27.1 µM (inactive); with KM-20L2, 23.7 µM (inactive); with DLD-1, 17.9 µM (inactive); in the assay on LXFL 529, 25.4 µM (inactive); with XF498 it was 12.1 µM (inactive).
As for `CC(=O)NNc1nc(C)c(C(=O)NNC(=O)C(=O)Nc2c(C)cccc2C(C)C)s1`, the GI50 in the assay with M19-MEL is > 100 µM (inactive); in the assay on DMS-273 it was > 100 µM (inactive); in the assay with SNB-78, 27.9 µM (inactive); in the assay with KM-20L2 it was > 100 µM (inactive); with LXFL 529, 46.1 µM (inactive); in the assay with XF498, > 100 µM (inactive).
For the compound `CCOC(=O)C1=C(OC(OCC)C(C)[Se]c2ccccc2)CCC1` (stereo unspecified), the GI50 in the assay with M19-MEL is 15.8 µM (inactive); with DMS-273, 10.3 µM (inactive); in the assay with SNB-78, 97.1 µM (inactive); in the assay on HOP-18, 20.8 µM (inactive); in the assay on KM-20L2, 29.2 µM (inactive); in the assay on DLD-1, 19.3 µM (inactive). In addition, the GI50 was 14.3 µM (inactive) in the assay on LXFL 529 and 16.1 µM (inactive) with XF498.
Turning to `O=C(Cc1cc[n+]([O-])cc1)C(=O)Nc1cc(Cl)c(Cl)cc1Cl`, the GI50 in the assay with M19-MEL, in the assay with RXF 631, in the assay with SNB-78, in the assay with KM-20L2, with DLD-1 and with LXFL 529 was > 100 µM (inactive) in each case.
`O=P(NCCCO)(OCc1ccccc1)N(CCCl)CCCl` (stereo unspecified): the GI50 in the assay with M19-MEL is > 100 µM (inactive); in the assay on DMS-273, > 100 µM (inactive); in the assay with SNB-78, > 100 µM (inactive); in the assay on HOP-18, > 39.5 µM (inactive); in the assay with KM-20L2, > 100 µM (inactive); in the assay on DLD-1, > 31.6 µM (inactive). In addition, the GI50 with XF498 is > 100 µM (inactive).
As for `CC(=O)OC1COC(N2C(=O)/C(=N\NC(N)=S)c3cc(Br)ccc32)C(OC(C)=O)C1OC(C)=O` (stereo unspecified), the GI50 was 53.5 µM (inactive) with M19-MEL; 38.5 µM (inactive) in the assay with DMS-273; 53.5 µM (inactive) in the assay with SNB-78; > 100 µM (inactive) in the assay on HOP-18; > 100 µM (inactive) in the assay on KM-20L2; 42.2 µM (inactive) in the assay on DLD-1. Also, the GI50 in the assay with LXFL 529 is 25.5 µM (inactive); in the assay with XF498, 37.1 µM (inactive).
Consider `CCOC(=O)Oc1ccc2[nH]c3c(C)cc(N)c(C)c3c2c1`, for which the GI50 with M19-MEL, in the assay on DMS-273, in the assay on SNB-78, in the assay on HOP-18, in the assay with DLD-1 and with XF498 was > 100 µM (inactive) throughout.
As for `N=C(N)SCc1cccc([N+](=O)[O-])c1`, the GI50 in the assay on M19-MEL is 35.3 µM (inactive); with DMS-273 it was 30.2 µM (inactive); in the assay on SNB-78 it was 35.6 µM (inactive); with HOP-18, 26.9 µM (inactive); in the assay with KM-20L2 it was 31.7 µM (inactive); with DLD-1 it was 27.2 µM (inactive). Also, in the assay on XF498, the GI50 was 25.1 µM (inactive).
For `O=C(Nc1cccs1)c1c(O)[nH]c(=S)[nH]c1=O`, the GI50 in the assay with RXF 631, with HOP-18, in the assay on KM-20L2 and with DLD-1 was > 100 µM (inactive) throughout.
Turning to `COC(=O)C1=CO[C@@H](OC2CC(CO)C(O)C(O)C2O)[C@@H]2[C@@H](C)[C@@H](OC(=O)/C=C/c3ccccc3)[C@@H](O)[C@H]12.COC(=O)C1=CO[C@@H](OC2CC(CO)C(O)C(O)C2O)[C@@H]2[C@@H](C)[C@@H](OC(=O)c3ccccc3)[C@@H](O)[C@H]12` (stereo partly specified), the GI50 with M19-MEL, in the assay on HOP-18, in the assay with KM-20L2, in the assay with DLD-1, with LXFL 529 and in the assay with XF498 was > 100 µM (inactive) throughout.
For `Cc1ccccc1NC(=O)c1c(C)oc2c1C(=O)c1ccccc1C2=O`, the GI50 is 8.63 µM (inactive) in the assay on M19-MEL; 42 µM (inactive) in the assay with DMS-273; 1.86 µM (inactive) in the assay on SNB-78; 65.5 µM (inactive) in the assay with KM-20L2; 33 µM (inactive) with DLD-1; 21.5 µM (inactive) with LXFL 529. Besides, in the assay on XF498, the GI50 was 32.2 µM (inactive).
On to `O=[N+]([O-])c1cccc2nc3ccccc3c(NCCO)c12`, for which the GI50 with M19-MEL was 0.0021 µM (active); in the assay on DMS-273, 0.00918 µM (active); in the assay with SNB-78, 0.00533 µM (active); with HOP-18 it was 0.0056 µM (active); in the assay on KM-20L2, 0.000121 µM (active); in the assay with DLD-1, 0.000277 µM (active). Besides, the GI50 with LXFL 529 was 0.00285 µM (active); with XF498 it was 0.00135 µM (active).
As for `CCNCC(=O)O[C@]1(CC)C(=O)OCc2c1cc1n(c2=O)Cc2cc3ccccc3nc2-1`, the GI50 was 0.394 µM (active) with M19-MEL; 0.0119 µM (active) in the assay with DMS-273; 5.11 µM (inactive) with SNB-78; 0.44 µM (active) in the assay on HOP-18; 1.14 µM (inactive) in the assay with KM-20L2; 2.37 µM (inactive) in the assay with DLD-1. The GI50 with LXFL 529 was 4.73 µM (inactive); with XF498, 0.364 µM (active).
Regarding `CC(=O)OC1CC2C(C)(C)C(=O)C=C[C@]2(C)C2CCC3(C)C(=CC(=O)C3c3ccoc3)[C@]12C` (stereo partly specified), the GI50 is 16 µM (inactive) in the assay with M19-MEL; 31.4 µM (inactive) in the assay with SNB-78; 18.4 µM (inactive) in the assay on HOP-18; 14.7 µM (inactive) in the assay on KM-20L2; 12.4 µM (inactive) in the assay with DLD-1; 24 µM (inactive) with LXFL 529. In addition, in the assay with XF498, the GI50 is 25.8 µM (inactive).

These data come from ChEMBL document CHEMBL1201862, “PubChem BioAssay data set” (2004).
